{
  "source": "patent US20040147595A1",
  "about": "“Biofilm degrading or sloughing compositions and methods” (priority 2001, published 2004)",
  "key": {"[1]": {"tested_on": "OHHL induced LuxR dependent expression of GFP", "assay": "Quantitative furanone inhibition of the LuxR-PluxI-gfp(ASV) quorum sensor in E. coli MT102 (pJBA89)", "type": "cell-based, Escherichia coli", "settings": "gradient of furanone concentration lowering RFU to 40% versus OHHL concentration (5-100 nM)", "excerpt": "To analyse the AHL antagonist activity of the halogenated furanones we tested the compounds for their ability to inhibit 3oxo-C6-HSL (OHHL) induced LuxR dependent expression of green fluorescent protein (GFP) from a Pgfp(ASV) fusion in the AHL monitor strain E. coli MT102 harbouring pJBA89 (Andersen et al., 2001).\nThe medium used is minimal ABT containing 0.5% glucose and 0.5% Casamino Acids. In growing cultures of the AHL monitor strain E. coli Mt102 (pJBA89) encoding […] and a P-gfp(ASV) fusion, GFP(ASV) is produced immediately upon OHHL addition specifically from the LuxR controlled P-gfp(ASV) fusion gene. The sensitivity is high (responsive to as little as 3 nm OHHL) and due to the instability built into the GFP (ASV) variant there is no background production of green fluoroscence (Andersen et al., 2001). GFP expression from the AHL monitor strain E. coli MT102 (pJBA89) and the control strain MT102 harbouring the lacl^q, Plas-gfp(ASV) IPTG inducible expression system pMH197 was quantified in the following way. Overnight cultures were diluted four fold in fresh medium and incubated for one hour at 30° C. while OHHL and furanone compounds in the required concentrations were mixed in the wells of microtiter dishes. […] When absolute values were required, green fluoroscence was measured on a fluorometer (model RF-1501; Shimadzu, Tokyo, Japan) act at an excitation wavelength of 475 nm and emission detection at 515 nm. To establish a correlation between the colour code of the ARGUS-50 captured images and green fluorescence, both colour and relative fluorescence units (RFU), were determined for a dilution series of an E. coli MT102 (pJBA89) culture which had been incubated with […]. […]\nFrom the second plot, the furanone concentration reducing the relative activity to 40% (ID60) is determined for each OHHL concentration. […]\nTo enable easy comparison of the strength of the furanones, an inhibition index (IIX40) is calculated for each furanone compound. […]"}, "bacterial growth": {"tested_on": "bacterial growth", "assay": "Bacterial growth inhibition at the concentrations tested in the quorum sensor assay", "type": "cell-based", "excerpt": "The natural compound 2 has an IIX40 0.75 where as compound 30 and […] have IIX40 of 0.01 and 0.51 respectively."}, "[2]": {"tested_on": "OHHL induced LuxR dependent expression of GFP", "settings": "E. coli MT102 (pJBA89); cited from earlier work"}, "[3]": {"tested_on": "V. fisheri lux quorum sensing system (LuxR)", "assay": "V. fisheri luxR PluxI-gfp(ASV) reporter in PAO-JP2 biofilm", "type": "cell-based, Pseudomonas aeruginosa", "settings": "250 nM OHHL", "description": "P. aeruginosa biofilms. Biofilms were grown at 30° C. in three-dimensional flow cells (Christensen et al., 1999) with individual channel dimensions of 0.3×4×40 mm supplied With ABt minimal medium supplemented with 2% LB. The flow system was assembled and prepared as described by Christensen et al. (1999). The substratum consisted of a microscope glass coverslip (Knittel 24×50 mm st1, Knittel Glaser, Braunschweig, Germany). Cultures for inoculation of the flow channels were prepared in the following way: P. aeruginosa strains were streaked on LB plates with the appropriate antibiotics and incubated for 24 h at 37° C. From each plate a single colony was used for inoculation of 10 ml ABt with 10% LB. The cultures were grown at, 30° C. for 18 h before they were diluted to an OD600 nm of 0.1 in sterile 0.9% NaCl and used for inoculation of the flow channels. Medium flow was kept at a constant rate of 3 mL/h, equivalent to a mean flow velocity of 0.7 mm/s, using a Watson-Marlow 205S peristaltic pump (Watson-Marlow, Falmouth, England). Biofilms were grown for 24 hours before being shifted to media containing AHL and furanone.\nScanning confocal laser microscopy (SCLM). Microscopic inspection and image acquisition were performed an a scanning confocal laser microscope (model TCS4D, Leica Lasertechnik GmbH, Heldelberg, Germany) equipped with a 63×/1.32-0.6 oil objective. The microscope was equipped with a motorized and programmable xy-stage, which was used for monitoring single colonies during the biofilm experiments. At the beginning of each online experiment, the microscope was programmed to track single randomly selected microcolonies; the sensitivity of photo multipliers and the laser intensity were adjusted and thereafter kept constant through out the duration of the experiments. Image scanning was carried out using the 488 nm and 568 nm lines of an Ar/Kr laser for detection of Gfp and Rfp, respectively. Visualization of captured images was performed using the IMARIS software package (Bitplane AG, Zúrich, Switzerland) running on a Silicon Graphics Indigo 2 workstation (Silicon Graphics, Mountain View, Calif. USA).\nRepression of LuxR-activated quorum sensing controlled gene transcription. We speculated that the AHL-antagonstic properties of furanone 56 was specific to the P. aeruginosa las quorum sensing system. To test this, a previously published quorum sensing reporter based on the Vibro fisherf luxR gene and Pluxl-gfp(ASV) (Anderson at al, 2001; Wu et al, 2000) was transferred to PAO-JP2."}},
  "data": [
    {"smiles": "O=C1C=C(Br)/C(=C/Br)O1", "note": "[Compound 30]", "values": [
      {"measurement": "inhibition index (IIX40)", "setting": "[1]", "result": "0.01 mole of furanone per mmole of"},
      {"measurement": "concentration slightly above which growth was inhibited", "setting": "bacterial growth", "result": "above 10 nm"}
    ]},
    {"smiles": "CCCC(=O)CC(=O)N[C@H]1CCOC1=O", "note": "[OHHL, N-[3-oxo-hexanoyl]-L-homoserine lactone, reference compound]", "values": [
      {"measurement": "lowest OHHL concentration the monitor strain responds to", "setting": "[2]", "result": 3, "unit": "nm"},
      {"measurement": "green fluorescence of biofilm", "setting": "[3]", "result": "developed within one hour"}
    ]}
  ]
}
